The text below walks through data of ChEMBL document CHEMBL6109156, “Discovery of Dual PD-L1/HDAC3 Inhibitors for Tumor Immunotherapy” (J Med Chem, 2025).

Usually IC50 stands for the point on the concentration scale where inhibition reaches its midpoint.

Assay [1] concerns the target Programmed cell death protein 1/Programmed cell death 1 ligand 1 (Homo sapiens, UniProt Q9NZQ7). The experiment in a line: Inhibition of PD-1/PD-L1 (unknown origin) interaction assessed as inhibition rate at 1 uM by HTRF assay relative to control. The assay is classed as protein-complex assay.
For assay [2], the system named is A-375. In words: Antiproliferative activity against human A-375 cells assessed as cell growth inhibition incubated for 48 hrs by MTT assay. The class given is functional, cell-based. Particulars: A-375, 48 h. A general note: Formazan colour is commonly taken as a measure of viable cells.
Assay [3] relates to HepG2. In words: Antiproliferative activity against human HepG2 cells assessed as cell growth inhibition incubated for 48 hrs by MTT assay. The class given is functional, cell-based. Particulars: HepG2, 48 h.
The test system of assay [4] is MDA-MB-231. In words: Antiproliferative activity against human MDA-MB-231 cells assessed as cell growth inhibition incubated for 48 hrs by MTT assay. The class given is functional, cell-based. Particulars: MDA-MB-231, 48 h.
Assay [5] deals with HCT-116. In words: Antiproliferative activity against human HCT-116 cells assessed as cell growth inhibition incubated for 48 hrs by MTT assay. The assay is classed as functional, cell-based. Particulars: HCT-116, 48 h.
Assay [6] has as its system B16-F10. The experiment in a line: Induction of apoptosis in mouse B16-F10 cells assessed as viable cells at 4 uM incubated for 48 hrs by Annexin V-FITC/PI staining based flow cytometry analysis (reference value: 92.3%). The class given is functional. Particulars: read-out: Activity. For orientation: In flow cytometry, cells or beads pass a laser one at a time.
The subject of assay [7] is B16-F10. In words: Induction of apoptosis in mouse B16-F10 cells assessed as early apoptotic cells at 4 uM incubated for 48 hrs by Annexin V-FITC/PI staining based flow cytometry analysis (reference value: 0.45 %). The assay is classed as functional.
In assay [8] the test system is B16-F10. The experiment in a line: Induction of apoptosis in mouse B16-F10 cells assessed as late apoptotic cells at 4 uM incubated for 48 hrs by Annexin V-FITC/PI staining based flow cytometry analysis (reference value: 5.02 %). The class given is functional.
For assay [9], the system named is B16-F10. In words: Induction of apoptosis in mouse B16-F10 cells assessed as necrotic cells at 4 uM incubated for 48 hrs by Annexin V-FITC/PI staining based flow cytometry analysis (reference value: 2.24%). The assay is classed as functional.
For assay [10], the system named is B16-F10. In words: Induction of cell cycle arrest in mouse B16-F10 cells assessed as accumulation of cells at G0/G1 phase at 4 uM incubated for 48 hrs by PI staining based flow cytometry analysis (reference value: 70.09%). The class given is functional.
For assay [11], the system named is B16-F10. In words: Induction of cell cycle arrest in mouse B16-F10 cells assessed as accumulation of cells at G2/M phase at 4 uM incubated for 48 hrs by PI staining based flow cytometry analysis (reference value: 5.87%). The assay is classed as functional.
The subject of assay [12] is B16-F10. The experiment in a line: Induction of cell cycle arrest in mouse B16-F10 cells assessed as accumulation of cells at S phase at 4 uM incubated for 48 hrs by PI staining based flow cytometry analysis (reference value: 24.04%). The assay is classed as functional.
Assay [13] has as its system B16-F10. The experiment in a line: Antitumor activity against mouse B16-F10 cells implanted in C57BL/6J mouse assessed as tumor growth inhibition at 20 mg/kg, ip administered once daily for 9 days in presence of NP19. The class given is functional. Particulars: B16-F10, 216 h, time 9 day, read-out: TGI.
Assay [14] relates to B16-F10. In words: Immunomodulatory activity in mouse B16-F10 cells implanted in C57BL/6J mouse assessed as percentage of CD3 positive CD8 positive cells in tumor at 10 mg/kg, ip administered once daily for 9 days in presence of NP19 by flow cytometric analysis (reference value: 0.44 %). The class given is functional. Particulars: time 9 day.
Assay [15] deals with B16-F10. The experiment in a line: Immunomodulatory activity in mouse B16-F10 cells implanted in C57BL/6J mouse assessed as percentage of CD3 positive CD4 positive cells in tumor at 10 mg/kg, ip administered once daily for 9 days in presence of NP19 by flow cytometric analysis (reference value: 0.20 %). The class given is functional. Particulars: time 9 day.

Programmed cell death protein 1/Programmed cell death 1 ligand 1, sequence (Q15116 whole entry): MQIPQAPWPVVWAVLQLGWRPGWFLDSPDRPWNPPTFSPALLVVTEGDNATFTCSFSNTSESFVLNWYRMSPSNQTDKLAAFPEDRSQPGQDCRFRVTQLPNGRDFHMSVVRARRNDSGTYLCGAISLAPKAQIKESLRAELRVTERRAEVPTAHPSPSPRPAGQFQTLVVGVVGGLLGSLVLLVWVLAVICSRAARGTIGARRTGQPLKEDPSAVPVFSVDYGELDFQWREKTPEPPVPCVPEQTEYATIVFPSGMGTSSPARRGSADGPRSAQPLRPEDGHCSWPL
Programmed cell death protein 1/Programmed cell death 1 ligand 1, sequence (Q9NZQ7 whole entry): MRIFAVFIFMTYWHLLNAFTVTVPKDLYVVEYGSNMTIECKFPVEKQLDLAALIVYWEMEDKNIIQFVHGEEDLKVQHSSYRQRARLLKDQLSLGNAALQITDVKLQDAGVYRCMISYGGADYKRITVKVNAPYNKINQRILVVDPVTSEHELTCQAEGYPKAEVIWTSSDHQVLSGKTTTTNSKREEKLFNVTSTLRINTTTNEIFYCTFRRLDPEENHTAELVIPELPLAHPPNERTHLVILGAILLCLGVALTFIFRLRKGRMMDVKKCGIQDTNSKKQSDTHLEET

On to `Nc1ccccc1NC(=O)c1ccc(CNC(=O)OCc2cccnc2)cc1` [ENTINOSTAT], for which the IC50 in [1] was over 10 µM; in [2], 4.91 µM; in assay [3] it was 6.32 µM; in [4], 30.3 µM; in assay [5], 3.54 µM. Besides, the viability at 4 µM in assay [6] is 74.5%. Moreover, the Activity in assay [7] is given as 7.43%; in assay [8] it was 12.8%; in [9] it was 5.25%; in assay [10], 87.62%; in assay [11], 6.59%; in assay [12], 5.79%. For the same compound, the values for the Activity in assay [14] and in assay [15] were 3.34% and 1.89%, respectively. For the same compound, the inhibition in vivo at 20 mg/kg in assay [13] amounted to 37%.
